This note sets out measurements from patent US20260234180A1, “AMINO ACID DERIVATIVE, PREPARATION METHOD THEREFOR, AND PHARMACEUTICAL COMPOSITION FOR TREATING HEPATITIS, COMPRISING SAME” (priority 2021, published 2026).

One experiment relates to HBV virus. Put plainly: HBV infection of HepG2-NTCP cells, Southern blot analysis. The class given is cell-based, hepatitis B virus (HBV). The note with it: 20 μM. How it is done:
Specifically, the HepG2-NTCP cell line was cultured on a 6-well plate, incubation was performed overnight, HBV inhibitors were treated at a concentration of 20 μM, and the positive control Myrcludex-B (MyrB) was treated at a concentration of 200 nM, followed by culture for 24 hours. After HBV infection into the cells to make HBV 3000 genome equivalent per ml/cell (Geq/cell), the cell culture medium was replaced (medium changing, MC) a day after the viral infection to remove the virus unattached to cell membranes. In order to measure an amount of virus that entered the cell, medium changing (MC) was performed once more 4 days after viral infection. 2 days after replacement, HBeAg ELISA analysis was performed using a supernatant, and Southern blot analysis was performed with cell pellets.
First, the cell pellets were pipetted with 100 μl of HEPES lysis buffer (10 mM HEPES, 100 mM NaCl, 1 mM EDTA, 1% NP-40), placed on ice for 20 minutes, and then centrifuged with a centrifuge under the conditions at 4° C. and 13000 rpm. After transferring the supernatant only to the new microtube, 4.5 μl of nuclease buffer I (10 mM CaCl2), 12 mM MgCl2, DNase 10 units) was added to carry out a reaction at 37° C. for 2 hours, and 40 μl of 26% PEG solution was added, followed by a reaction on ice for 1 hour. After centrifuging with the centrifuge at 4° C. and 13000 rpm for 30 minutes, and the supernatant was removed cleanly. After releasing the pellets with 100 μl of nuclease buffer II (10 mM Tris, 8 mM CaCl2), 6 mM MgCl2), 287.5 μl of 0.5% SDS buffer (25 mM Tris, 10 mM EDTA, 0.5% SDS, 100 mM NaCl) was added, and 12.5 μl of 20 mg/ml proteinase K was added, followed by a reaction at 37° C. for 2 hours. 400 μl of phenol-chloroform-isoamyl alcohol was added, centrifugation was performed at room temperature at 13000 rpm after voltexing, the supernatant was transferred to a new tube, 40 μl of 3 M NaOAc was added, and 800 μl of 100% ethanol was added for inverting, followed by a reaction overnight at −20° C. After performing centrifugation at 4° C. and 13000 rpm for 30 minutes, 800 μl of 70% ethanol was added and mixed to the pellet obtained by removing the supernatant, centrifugation was performed at 4° C. and 13000 rpm for 10 minutes, and then the supernatant was discarded. The ethanol was dried for 5 minutes to leave only the HBV DNA pellets, and then the pellets were dissolved again in 15 μl of TE buffer (10 mM Tris, 1 mM EDTA). HBV DNA samples were loaded in 1% agarose gel, and electrophoresis was performed. It was then immersed in denature buffer (0.25 N NaOH, 1 M NaCl) for 30 minutes to denature dsDNA of HBV into ssDNA. The DNA in the gel was transferred to a Nylon membrane using a transfer buffer (0.4 M NaOH), the membrane was soaked with a 2×SSC buffer (sigma, cat #85639) for neutralization, followed by drying in air. The membrane was immersed in a church buffer (10% BSA, 0.5 M EDTA, 1 M NaPi, 20% SDS), and the radioisotopes were hybridized using a Mega prime kit (GE healthcare, RPN1607). After washing three times with washing buffer (2×SSC, 0.1% SDS), measurement was performed using radioisotope measurement equipment, and a relative replication rate (%) to the negative control group (Mock) was calculated and shown.

Experiment [1] addresses T1, NTCP (Na+ taurocholate cotransporting peptide), HepG2-hNTCP-C4 cell line (Homo sapiens, UniProt Q14973).
T1 construct: expressed in transfected cells; host or cells: HepG2-hNTCP-C4 (HepG2 cells expressing human NTCP)
T1 sequence (Q14973 1-349): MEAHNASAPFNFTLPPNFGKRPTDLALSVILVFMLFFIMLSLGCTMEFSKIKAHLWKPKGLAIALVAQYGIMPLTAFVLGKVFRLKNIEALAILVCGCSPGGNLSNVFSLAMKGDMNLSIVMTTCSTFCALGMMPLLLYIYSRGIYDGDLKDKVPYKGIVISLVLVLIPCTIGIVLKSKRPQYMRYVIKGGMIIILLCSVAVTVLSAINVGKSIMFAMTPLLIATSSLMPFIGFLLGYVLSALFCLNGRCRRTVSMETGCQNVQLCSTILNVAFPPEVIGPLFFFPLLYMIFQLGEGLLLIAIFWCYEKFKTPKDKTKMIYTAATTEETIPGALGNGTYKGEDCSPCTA
Put plainly: Inhibition of binding between FITC-labelled PreS1 and NTCP expressing cell line, flow cytometry. The procedure: HepG2-hNTCP-C4 cell line, a cell line expressing NTCP, was seeded in a 6 well plate at a density of 2×10^5/well and incubated at 4° C. for 30 minutes when the confluency reached 80% after overnight incubation for 2 days. Thereafter, 20 nM PreS1 (Myr-GTNL […]-Lys(FITC) (SEQ ID NO: 1)) and the compounds in Example 1, Examples 38 to 56 or the compound in Comparative Example 1 were treated by diluting in culture media at 4° C. at a concentration of 50 µM respectively, and the media was suctioned after 2 hours, followed by washing 3 times with 4° C. PBS. In order to take the cells off from the plate, 500 μl of 0.5 mM EDTA PBS solution was treated, and then incubation was performed at 37° C. for 15 minutes to check whether the cells fell off through an optical microscope. After taking off the cells by pipetting, the cells were collected in a 1.5 ml tube and centrifuged (4000 rpm, 4° C., 3 min). After suctioning the supernatant, the pellet was washed 3 times with 4° C. PBS, and then green fluorescence was measured via flow cytometry. In this case, taurocholic acid (TCA), a compound known as a substrate of NTCP to reduce the entry of HBV or HDV, was used as a positive control group.
In the graph at the top of FIG. 1, black (1) and red (2) indicate a negative control group with no treatment and an HBV-induced group (HBV preS1) solely treated with PreS1, respectively. Blue (HBV preS1+HBV entry inhibitor) (3) is the fluorescence value for each of Examples or Comparative Examples, evaluated that the closer to the negative control group, the more inhibited the binding between PreS1 and the NTCP cell line.
The experimental method was the same as in the Experimental Example 1-1, and 20 nM PreS1 and each compound were treated at 4 concentrations (0.2 μM, 2 μM, 10 μM, 50 μM).
With an expectation that there is a structure-activity relationship among compounds composed of bile acid and amino acids, for each of bile acids in Comparative Example 1 (lithocholic acid, LCA), Comparative Example 2 (ursodeoxycholic acid, UDCA), Comparative Example 3 (cholic acid, CA), Comparative Example 4 (hyodeoxycholic acid, HDCA), Comparative Example 5 (deoxycholic acid, DCA), and Comparative Example 6 (chenodeoxycholic acid, CDCA), an evaluation experiment was conducted on an ability to inhibit the binding between PreS1 and NTCP expressing cell lines, and also for Examples 1 (LCA-Ile) and Example 44 (LCA-Val) as well as the compounds in Example 2 (UDCA-Ile), Example 3 (UDCA-Val), Example 6 (CA-Ile), Example 7 (CA-Val), Example 8 (HDCA-Ile), Example 9 (HDCA-Val), Example 10 (DCA-Ile), Example 11 (DCA-Val), Example 14 (CDCA-Ile), and Example 15 (CDCA-Val) in which bile acid parts (lithocholic acid) of Example 1 (LCA-Ile) and Example 44 (LCA-Val) were substituted with other types of bile acids in Comparative Examples 2 to 6, an evaluation experiment was conducted on an ability to inhibit the binding between PreS1 and NTCP expressing cell lines. The experimental method was the same as in the Experimental Example 1-1, and 18 compounds in the Comparative Examples 1 to 6, Examples 1 to 3, Examples 6 to 11, Examples 14 to 15, and Example 44 were treated at a concentration of 50 µM along with 20 nM PreS1.
In FIG. 9, an evaluation experiment was conducted to check a degree of inhibiting the binding between PreS1 and NTCP expressing cell lines for compounds in Examples 4 to 5, Examples 12 to 13, Examples 16 to 17, and Comparative Examples 2 (ursodeoxycholic acid, UDCA), Comparative Examples 5 (deoxycholic acid, DCA), and Comparative Examples 6 (chenodeoxycholic acid, CDCA) according to the present disclosure. The experimental method was the same as the Experimental Example 1-1.
In the Experimental Examples 1-4, it was determined whether there is additionally concentration dependence for Example 4 (UDCA-Trp), a compound with good inhibitory ability. […]
Background: In flow cytometry, cells or beads pass a laser one at a time.

With `CC(C)[C@H](NC(=O)CC[C@@H](C)[C@H]1CC[C@H]2[C@@H]3CC[C@@H]4C[C@H](O)CC[C@]4(C)[C@H]3CC[C@]12C)C(=O)N[C@@H](Cc1c[nH]c2ccccc12)C(=O)O` [Example 25, (S)-2-((S)-2-((R)-4-((3R,5R,8R,9S,10S,13R,14S,17R)-3-hydroxy-10,13-dimethyl-hexadecahydro-1H-cyclopenta[a]phenanthren-17-yl)pentanamido)-3-methylbutanamido)-3-(1H-indol-3-yl)propanoic acid], in the experiment on HBV virus, the “amount of HBeAg DNA detected compared to the negative control group (Mock)” value was “relatively less amount”.

Regarding `C[C@H](CCC(=O)N[C@@H](Cc1ccc(O)cc1)C(=O)O)[C@H]1CC[C@H]2[C@@H]3CC[C@@H]4C[C@H](O)CC[C@]4(C)[C@H]3CC[C@]12C` [Example 52, (S)-2-((R)-4-((3R,5R,8R,9S,10S,13R,14S,17R)-3-hydroxy-10,13-dimethyl-hexadecahydro-1H-cyclopenta[a]phenanthren-17-yl)pentanamido)-3-(4-hydroxyphenyl)propanoic acid], the “effect of inhibiting the binding between PreS1 and NTCP expressing cell lines by treatment concentration” value in experiment [1] (0.2 μM, 2 μM, 10 μM, 50 μM, 20 nM PreS1) was “concentration dependent”. The “relative fluorescence intensity compared to Comparative Example 1 (LCA)” value in experiment [1] (compound 50 µM, 20 nM PreS1, 4° C., 2 hours, lower = more inhibited binding) was “low and lower”. The “amount of HBeAg DNA detected compared to the negative control group (Mock)” value with HBV virus is on record as “relatively less amount”. Regarding `C[C@H](CCC(=O)N[C@@H](CCC(=O)O)C(=O)O)[C@H]1CC[C@H]2[C@@H]3CC[C@@H]4C[C@H](O)CC[C@]4(C)[C@H]3CC[C@]12C` [Example 55, (S)-2-((R)-4-((3R,5R,8R,9S,10S,13R,14S,17R)-3-hydroxy-10,13-dimethyl-hexadecahydro-1H-cyclopenta[a]phenanthren-17-yl)pentanamido)pentanedioic acid], the “amount of HBeAg DNA detected compared to the negative control group (Mock)” value in the experiment with HBV virus is recorded as “relatively less amount”.
